Test results as given in ChEMBL document CHEMBL4765227, “Hit to lead optimization of a series of N-[4-(1,3-benzothiazol-2-yl)phenyl]acetamides as monoacylglycerol lipase inhibitors with potential anticancer activity” (Eur J Med Chem, 2016).

Assays:
Assay type in all cases: functional
Details in all cases: read-out: GI
[1] = test system: HL-60(TB); assay: Growth inhibition of human HL-60(TB) cells at 10 uM incubated for 48 hrs by sulforhodamine B assay relative to control
[2] = test system: K562; assay: Growth inhibition of human K562 cells at 10 uM incubated for 48 hrs by sulforhodamine B assay relative to control
[3] = test system: MOLT-4; assay: Growth inhibition of human MOLT-4 cells at 10 uM incubated for 48 hrs by sulforhodamine B assay relative to control
[4] = test system: RPMI-8226; assay: Growth inhibition of human RPMI-8226 cells at 10 uM incubated for 48 hrs by sulforhodamine B assay relative to control
[5] = test system: SR; assay: Growth inhibition of human SR cells at 10 uM incubated for 48 hrs by sulforhodamine B assay relative to control
[6] = test system: A549; assay: Growth inhibition of human A549/ATCC cells at 10 uM incubated for 48 hrs by sulforhodamine B assay relative to control
[7] = test system: NCI-H226; assay: Growth inhibition of human NCI-H226 cells at 10 uM incubated for 48 hrs by sulforhodamine B assay relative to control
[8] = test system: NCI-H23; assay: Growth inhibition of human NCI-H23 cells at 10 uM incubated for 48 hrs by sulforhodamine B assay relative to control
[9] = test system: NCI-H322M; assay: Growth inhibition of human NCI-H322M cells at 10 uM incubated for 48 hrs by sulforhodamine B assay relative to control
[10] = test system: NCI-H522; assay: Growth inhibition of human NCI-H522 cells at 10 uM incubated for 48 hrs by sulforhodamine B assay relative to control
[11] = test system: HCC 2998; assay: Growth inhibition of human HCC 2998 cells at 10 uM incubated for 48 hrs by sulforhodamine B assay relative to control
[12] = test system: HT-29; assay: Growth inhibition of human HT-29 cells at 10 uM incubated for 48 hrs by sulforhodamine B assay relative to control
[13] = test system: KM12; assay: Growth inhibition of human KM12 cells at 10 uM incubated for 48 hrs by sulforhodamine B assay relative to control
[14] = test system: SF-268; assay: Growth inhibition of human SF-268 cells at 10 uM incubated for 48 hrs by sulforhodamine B assay relative to control
[15] = test system: SF-295; assay: Growth inhibition of human SF-295 cells at 10 uM incubated for 48 hrs by sulforhodamine B assay relative to control
[16] = test system: SF-539; assay: Growth inhibition of human SF-539 cells at 10 uM incubated for 48 hrs by sulforhodamine B assay relative to control
[17] = test system: SNB-19; assay: Growth inhibition of human SNB-19 cells at 10 uM incubated for 48 hrs by sulforhodamine B assay relative to control
[18] = test system: U-251; assay: Growth inhibition of human U-251 cells at 10 uM incubated for 48 hrs by sulforhodamine B assay relative to control
[19] = test system: Malme-3M; assay: Growth inhibition of human Malme-3M cells at 10 uM incubated for 48 hrs by sulforhodamine B assay relative to control
[20] = test system: M14; assay: Growth inhibition of human M14 cells at 10 uM incubated for 48 hrs by sulforhodamine B assay relative to control
[21] = test system: MDA-MB-435; assay: Growth inhibition of human MDA-MB-435 cells at 10 uM incubated for 48 hrs by sulforhodamine B assay relative to control
[22] = test system: SK-MEL-5; assay: Growth inhibition of human SK-MEL-5 cells at 10 uM incubated for 48 hrs by sulforhodamine B assay relative to control
[23] = test system: UACC-257; assay: Growth inhibition of human UACC-257 cells at 10 uM incubated for 48 hrs by sulforhodamine B assay relative to control
[24] = test system: UACC-62; assay: Growth inhibition of human UACC-62 cells at 10 uM incubated for 48 hrs by sulforhodamine B assay relative to control
[25] = test system: IGROV-1; assay: Growth inhibition of human IGROV-1 cells at 10 uM incubated for 48 hrs by sulforhodamine B assay relative to control
[26] = test system: OVCAR-3; assay: Growth inhibition of human OVCAR-3 cells at 10 uM incubated for 48 hrs by sulforhodamine B assay relative to control
[27] = test system: OVCAR-4; assay: Growth inhibition of human OVCAR-4 cells at 10 uM incubated for 48 hrs by sulforhodamine B assay relative to control
[28] = test system: OVCAR-5; assay: Growth inhibition of human OVCAR-5 cells at 10 uM incubated for 48 hrs by sulforhodamine B assay relative to control
[29] = test system: OVCAR-8; assay: Growth inhibition of human OVCAR-8 cells at 10 uM incubated for 48 hrs by sulforhodamine B assay relative to control
[30] = test system: SK-OV-3; assay: Growth inhibition of human SK-OV-3 cells at 10 uM incubated for 48 hrs by sulforhodamine B assay relative to control
[31] = test system: 786-0; assay: Growth inhibition of human 786-0 cells at 10 uM incubated for 48 hrs by sulforhodamine B assay relative to control
[32] = test system: ACHN; assay: Growth inhibition of human ACHN cells at 10 uM incubated for 48 hrs by sulforhodamine B assay relative to control
[33] = test system: RXF 393; assay: Growth inhibition of human RXF 393 cells at 10 uM incubated for 48 hrs by sulforhodamine B assay relative to control
[34] = test system: SN12C; assay: Growth inhibition of human SN12C cells at 10 uM incubated for 48 hrs by sulforhodamine B assay relative to control
[35] = test system: TK-10; assay: Growth inhibition of human TK-10 cells at 10 uM incubated for 48 hrs by sulforhodamine B assay relative to control
[36] = test system: UO-31; assay: Growth inhibition of human UO-31 cells at 10 uM incubated for 48 hrs by sulforhodamine B assay relative to control
[37] = test system: PC-3; assay: Growth inhibition of human PC-3 cells at 10 uM incubated for 48 hrs by sulforhodamine B assay relative to control
[38] = test system: DU-145; assay: Growth inhibition of human DU-145 cells at 10 uM incubated for 48 hrs by sulforhodamine B assay relative to control
[39] = test system: MCF7; assay: Growth inhibition of human MCF7 cells at 10 uM incubated for 48 hrs by sulforhodamine B assay relative to control
[40] = test system: MDA-MB-231; assay: Growth inhibition of human MDA-MB-231 cells at 10 uM incubated for 48 hrs by sulforhodamine B assay relative to control
[41] = test system: Hs-578T; assay: Growth inhibition of human Hs-578T cells at 10 uM incubated for 48 hrs by sulforhodamine B assay relative to control
[42] = test system: BT-549; assay: Growth inhibition of human BT-549 cells at 10 uM incubated for 48 hrs by sulforhodamine B assay relative to control
[43] = test system: T47D; assay: Growth inhibition of human T47D cells at 10 uM incubated for 48 hrs by sulforhodamine B assay relative to control
[44] = test system: MDA-MB-468; assay: Growth inhibition of human MDA-MB-468 cells at 10 uM incubated for 48 hrs by sulforhodamine B assay relative to control

## Cc1ccc(NCC(=O)Nc2ccc(-c3nc4ccccc4s3)cc2)cc1
[1]
  inhibition of growth at 10 µM: 18.2%
[2]
  inhibition of growth at 10 µM: -0.15%
[3]
  inhibition of growth at 10 µM: 41.9%
[4]
  inhibition of growth at 10 µM: 18.6%
[5]
  inhibition of growth at 10 µM: 19.1%
[6]
  inhibition of growth at 10 µM: 13.8%
[7]
  inhibition of growth at 10 µM: 5.78%
[8]
  inhibition of growth at 10 µM: 16.4%
[9]
  inhibition of growth at 10 µM: 4.73%
[10]
  inhibition of growth at 10 µM: 12.3%
[11]
  inhibition of growth at 10 µM: 17%
[12]
  inhibition of growth at 10 µM: -6.9%
[13]
  inhibition of growth at 10 µM: 0.91%
[14]
  inhibition of growth at 10 µM: 12.6%
[15]
  inhibition of growth at 10 µM: -3.28%
[16]
  inhibition of growth at 10 µM: 2.9%
[17]
  inhibition of growth at 10 µM: 10.5%
[18]
  inhibition of growth at 10 µM: 19.4%
[19]
  inhibition of growth at 10 µM: -21.5%
[20]
  inhibition of growth at 10 µM: 3.66%
[21]
  inhibition of growth at 10 µM: -1.83%
[22]
  inhibition of growth at 10 µM: 11.3%
[23]
  inhibition of growth at 10 µM: 5.3%
[24]
  inhibition of growth at 10 µM: 14.5%
[25]
  inhibition of growth at 10 µM: 7.63%
[26]
  inhibition of growth at 10 µM: 0.68%
[27]
  inhibition of growth at 10 µM: 14.5%
[28]
  inhibition of growth at 10 µM: -6.57%
[29]
  inhibition of growth at 10 µM: 7.13%
[30]
  inhibition of growth at 10 µM: -13.1%
[31]
  inhibition of growth at 10 µM: 10.2%
[32]
  inhibition of growth at 10 µM: -6.82%
[33]
  inhibition of growth at 10 µM: 10.7%
[34]
  inhibition of growth at 10 µM: 11.1%
[35]
  inhibition of growth at 10 µM: -7.12%
[36]
  inhibition of growth at 10 µM: 37.5%
[37]
  inhibition of growth at 10 µM: 8.39%
[38]
  inhibition of growth at 10 µM: 5.52%
[39]
  inhibition of growth at 10 µM: 40.9%
[40]
  inhibition of growth at 10 µM: 22.3%
[41]
  inhibition of growth at 10 µM: -3.42%
[42]
  inhibition of growth at 10 µM: 35.4%
[43]
  inhibition of growth at 10 µM: 33.8%
[44]
  inhibition of growth at 10 µM: 13%

## Cc1cc(NCC(=O)Nc2ccc(-c3nc4ccccc4s3)cc2)no1
[1]
  inhibition of growth at 10 µM: 3.55%
[2]
  inhibition of growth at 10 µM: 17%
[3]
  inhibition of growth at 10 µM: 53.2%
[4]
  inhibition of growth at 10 µM: 1.57%
[5]
  inhibition of growth at 10 µM: 30.1%
[6]
  inhibition of growth at 10 µM: 7.66%
[7]
  inhibition of growth at 10 µM: 8.98%
[8]
  inhibition of growth at 10 µM: 17.2%
[9]
  inhibition of growth at 10 µM: -1.5%
[10]
  inhibition of growth at 10 µM: 17.9%
[11]
  inhibition of growth at 10 µM: 0.84%
[12]
  inhibition of growth at 10 µM: -4.71%
[13]
  inhibition of growth at 10 µM: -1.64%
[14]
  inhibition of growth at 10 µM: 12.6%
[15]
  inhibition of growth at 10 µM: 3.62%
[16]
  inhibition of growth at 10 µM: -5.46%
[17]
  inhibition of growth at 10 µM: 3.47%
[18]
  inhibition of growth at 10 µM: 11.9%
[19]
  inhibition of growth at 10 µM: 10.5%
[20]
  inhibition of growth at 10 µM: -5.87%
[21]
  inhibition of growth at 10 µM: -4.18%
[22]
  inhibition of growth at 10 µM: 12.3%
[23]
  inhibition of growth at 10 µM: 0.29%
[24]
  inhibition of growth at 10 µM: 13.5%
[25]
  inhibition of growth at 10 µM: 11.5%
[26]
  inhibition of growth at 10 µM: 0.7%
[27]
  inhibition of growth at 10 µM: -10.7%
[28]
  inhibition of growth at 10 µM: -19%
[29]
  inhibition of growth at 10 µM: 3.61%
[30]
  inhibition of growth at 10 µM: -19.7%
[31]
  inhibition of growth at 10 µM: -1.59%
[32]
  inhibition of growth at 10 µM: -10.7%
[33]
  inhibition of growth at 10 µM: -4.8%
[34]
  inhibition of growth at 10 µM: -2.43%
[35]
  inhibition of growth at 10 µM: 7.91%
[36]
  inhibition of growth at 10 µM: 23%
[37]
  inhibition of growth at 10 µM: 3.37%
[38]
  inhibition of growth at 10 µM: 4.13%
[39]
  inhibition of growth at 10 µM: 64.1%
[40]
  inhibition of growth at 10 µM: -8.49%
[41]
  inhibition of growth at 10 µM: -1.12%
[42]
  inhibition of growth at 10 µM: 5.29%
[43]
  inhibition of growth at 10 µM: 19.7%
[44]
  inhibition of growth at 10 µM: 147%
